{
  "source": "ChEMBL document CHEMBL5705903",
  "about": "“A DNA Hypomethylation Signature Predicts Antitumor Activity of LSD1 Inhibitors in SCLC” (Cancer Cell, 2015)",
  "key": {"[1]": {"experiment": "Inhibition of GABA-A receptor (unknown origin)", "parameters": "species or system Homo sapiens"}, "D-amino-acid oxidase": {"molecular_target": "D-amino-acid oxidase (Homo sapiens, UniProt P14920)", "sequence (P14920 whole entry)": "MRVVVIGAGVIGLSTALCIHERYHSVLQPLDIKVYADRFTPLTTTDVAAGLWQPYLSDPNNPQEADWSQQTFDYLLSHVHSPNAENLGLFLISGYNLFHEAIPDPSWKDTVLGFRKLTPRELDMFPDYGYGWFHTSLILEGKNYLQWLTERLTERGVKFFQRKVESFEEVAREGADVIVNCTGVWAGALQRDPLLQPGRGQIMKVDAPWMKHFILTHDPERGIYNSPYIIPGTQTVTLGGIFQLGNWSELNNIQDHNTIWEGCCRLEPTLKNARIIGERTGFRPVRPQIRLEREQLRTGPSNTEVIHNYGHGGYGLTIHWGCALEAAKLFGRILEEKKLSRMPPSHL", "experiment": "Binding affinity to D-amino acid oxidase (unknown origin) assessed as apparent inhibition constant", "settings": "read-out: Ki(app)"}, "[2]": {"experiment": "Cmax in mouse tumor at 5 mg/kg, po by HPLC/MS/MS analysis", "format": "ADME, organism-based, Neoplasm"}, "[3]": {"experiment": "Effect on cleaved PARP level in human NCI-H1417 cells assessed as relative expression at 10 nM measured after 10 days by Western blot analysis (reference value: 0.19)", "format": "functional", "settings": "time 10 day"}, "[4]": {"experiment": "Effect on cleaved PARP level in human NCI-H1417 cells assessed as fold change at 10 nM measured after 7 days by Western blot analysis (reference value: 1.00)", "format": "functional", "settings": "time 7 day"}, "[5]": {"experiment": "Effect on cleaved PARP level in human NCI-H526 cells assessed as relative expression at 100 nM measured after 14 days by Western blot analysis (reference value: 0.66)", "format": "functional", "settings": "time 14 day"}, "[6]": {"experiment": "Effect on cleaved PARP level in human NCI-H526 cells assessed as relative expression at 1000 nM measured after 14 days by Western blot analysis (reference value: 0.66)", "format": "functional", "settings": "time 14 day"}, "[7]": {"experiment": "Effect on cleaved PARP level in human NCI-H524 cells assessed as fold change at 100 nM measured after 10 days by Western blot analysis (reference value: 1.00)", "format": "functional", "settings": "time 10 day"}, "[8]": {"experiment": "Effect on cleaved PARP level in human NCI-H524 cells assessed as fold change at 10 nM measured after 14 days by Western blot analysis (reference value: 1.00)", "format": "functional", "settings": "time 14 day"}, "[9]": {"experiment": "Effect on cleaved PARP level in human NCI-H1694 cells assessed as relative expression at 1000 nM measured after 10 days by Western blot analysis (reference value: .31)", "format": "functional", "settings": "time 10 day"}, "[10]": {"experiment": "Effect on cleaved PARP level in human NCI-H1694 cells assessed as fold change at 1000 nM measured after 10 days by Western blot analysis (reference value: 1.00)", "format": "functional", "settings": "time 10 day"}, "[11]": {"experiment": "Effect on cleaved PARP level in human NCI-H69 cells assessed as relative expression at 10 nM measured after 14 days by Western blot analysis (reference value: 0.03)", "format": "functional", "settings": "time 14 day"}, "[12]": {"experiment": "Effect on cleaved PARP level in human NCI-H69 cells assessed as relative expression at 1000 nM measured after 14 days by Western blot analysis (reference value: 0.03)", "format": "functional", "settings": "time 14 day"}, "[13]": {"experiment": "Effect on cleaved PARP level in human NCI-H69 cells assessed as fold change at 10 nM measured after 7 days by Western blot analysis (reference value: 1.00)", "format": "functional", "settings": "time 7 day"}, "[14]": {"experiment": "Effect on cleaved PARP level in human NCI-H69 cells assessed as fold change at 100 nM measured after 7 days by Western blot analysis (reference value: 1.00)", "format": "functional", "settings": "time 7 day"}, "[15]": {"experiment": "Effect on cleaved PARP level in human NCI-H69 cells assessed as fold change at 1000 nM measured after 7 days by Western blot analysis (reference value: 1.00)", "format": "functional", "settings": "time 7 day"}, "[16]": {"experiment": "Effect on cleaved PARP level in human NCI-H510 cells assessed as relative expression at 1000 nM measured after 7 days by Western blot analysis (reference value: 0.24)", "format": "functional, NCI-H510A", "settings": "time 7 day"}, "[17]": {"experiment": "Effect on cleaved PARP level in human NCI-H510 cells assessed as relative expression at 10 nM measured after 10 days by Western blot analysis (reference value: 0.02)", "format": "functional, NCI-H510A", "settings": "time 10 day"}, "[18]": {"experiment": "Effect on cleaved PARP level in human NCI-H889 cells assessed as relative expression at 10 nM measured after 14 days by Western blot analysis (reference value: 0.94)", "format": "functional", "settings": "time 14 day"}, "[19]": {"experiment": "Effect on cleaved PARP level in human NCI-H889 cells assessed as relative expression at 1000 nM measured after 14 days by Western blot analysis (reference value: 0.94)", "format": "functional", "settings": "time 14 day"}, "[20]": {"experiment": "Effect on cleaved PARP level in human NCI-H889 cells assessed as fold change at 1000 nM measured after 10 days by Western blot analysis (reference value: 1.00)", "format": "functional", "settings": "time 10 day"}, "[21]": {"experiment": "Effect on cleaved PARP level in human NCI-H2171 cells assessed as relative expression at 1000 nM measured after 7 days by Western blot analysis (reference value: 0.02)", "format": "functional", "settings": "time 7 day"}, "[22]": {"experiment": "Effect on cleaved PARP level in human NCI-H2171 cells assessed as relative expression at 1000 nM measured after 10 days by Western blot analysis (reference value: 0.02)", "format": "functional", "settings": "time 10 day"}, "[23]": {"experiment": "Effect on cleaved PARP level in human NCI-H2171 cells assessed as fold change at 100 nM measured after 10 days by Western blot analysis (reference value: 1.00)", "format": "functional", "settings": "time 10 day"}, "[24]": {"experiment": "Effect on cleaved PARP level in human NCI-H146 cells assessed as relative expression at 100 nM measured after 7 days by Western blot analysis (reference value: […])", "format": "functional", "settings": "time 7 day"}, "[25]": {"experiment": "Toxicity in dog assessed as effect on ECG measured for 28 days", "parameters": "species or system Canis lupus familiaris", "settings": "in vivo, 672 h, time 28 day"}, "NCI-H69": {"system": "NCI-H69", "experiment": "Antitumor activity against human NCI-H69 cells xenografted in nude mouse assessed as mean tumor volume at 1.5 mg/kg, po administered daily measured twice weekly (reference value: 1063 +/- 161 mm3)", "format": "functional"}, "NCI-H526 [26]": {"system": "NCI-H526", "experiment": "Antitumor activity against human NCI-H526 cells xenografted in nude mouse assessed as tumor growth inhibition at 1.5 mg/kg, po administered daily measured twice weekly relative to control", "format": "functional", "settings": "read-out: TGI"}, "NCI-H526 [27]": {"system": "NCI-H526", "experiment": "Antitumor activity against human NCI-H526 cells xenografted in nude mouse assessed as tumor growth inhibition at 0.5 mg/kg, po administered daily measured twice weekly relative to control", "format": "functional", "settings": "read-out: TGI"}, "NCI-H146": {"system": "NCI-H146", "experiment": "Effect on NSE gene expression in human NCI-H146 cells at 1 uM measured after 4 to 7 days by qRT-PCR analysis", "format": "functional, cell-based", "settings": "time 4-7 day"}, "NCI-H526 [28]": {"system": "NCI-H526", "experiment": "Upregulation of LSD1 signal enrichment at typical enhancers in human NCI-H526 cells at 1 uM", "format": "functional, cell-based"}, "NCI-H526 [29]": {"system": "NCI-H526", "experiment": "In vivo inhibition of LSD1 in human NCI-H526 cells xenografted in nude mouse assessed as change in KIAA1644 gene expression measured after 24 hrs post single administration by qRT-PCR analysis", "format": "functional, organism-based", "settings": "dose 0.06-135 mg/kg"}, "NCI-H526 [30]": {"system": "NCI-H526", "experiment": "In vivo inhibition of LSD1 in human NCI-H526 cells xenografted in nude mouse assessed as change in IGFBP2 gene expression measured after 24 hrs post single administration by qRT-PCR analysis", "format": "functional, organism-based", "settings": "dose 0.06-135 mg/kg"}, "NCI-H1417 [31]": {"system": "NCI-H1417", "experiment": "In vivo inhibition of LSD1 in human NCI-H1417 cells xenografted in nude mouse assessed as change in LBH gene expression measured after 24 hrs post single administration by qRT-PCR analysis", "format": "functional, organism-based", "settings": "dose 0.02-135 mg/kg"}, "NCI-H1417 [32]": {"system": "NCI-H1417", "experiment": "In vivo inhibition of LSD1 in human NCI-H1417 cells xenografted in nude mouse assessed as change in SAMD5 gene expression measured after 24 hrs post single administration by qRT-PCR analysis", "format": "functional, organism-based", "settings": "dose 0.02-135 mg/kg"}, "[33]": {"molecular_target": "Lysine-specific histone demethylase 1A (Homo sapiens, UniProt O60341)", "settings": "NCI-H526, dose 1-10000 nM, time 1-7 day", "description": "Inhibition of LSD1 in human NCI-H526 cells assessed as change in IGFBP2 gene expression treated for 1 to 7 days by qRT-PCR analysis"}},
  "note": "The source made the active and inactive calls. The rule behind the calls is not given here.",
  "data": [
    {"compound": "c1ccc([C@@H]2C[C@H]2NC2CCNCC2)cc1", "values": [
      {"measurement": "IC50", "setting": "[1]", "result": "> 100", "unit": "µM"}
    ]},
    {"compound": "O=C(O)c1ccc(CN2CCC(CN[C@@H]3C[C@H]3c3ccccc3)CC2)cc1", "note": "[GSK2879552]", "values": [
      {"measurement": "Ki", "setting": "D-amino-acid oxidase", "result": 520, "unit": "µM"},
      {"measurement": "Cmax", "setting": "[2]", "result": 355, "unit": "ng/mL"},
      {"measurement": "Activity", "setting": "[3]", "result": 0.27},
      {"measurement": "fold change (FC)", "setting": "[4]", "result": 1.53},
      {"measurement": "Activity", "setting": "[5]", "result": 0.93},
      {"measurement": "Activity", "setting": "[6]", "result": 0.9},
      {"measurement": "fold change (FC)", "setting": "[7]", "result": 0.71},
      {"measurement": "fold change (FC)", "setting": "[8]", "result": 0.79},
      {"measurement": "Activity", "setting": "[9]", "result": 0.22},
      {"measurement": "fold change (FC)", "setting": "[10]", "result": 0.71},
      {"measurement": "Activity", "setting": "[11]", "result": 0.05},
      {"measurement": "Activity", "setting": "[12]", "result": 0.17},
      {"measurement": "fold change (FC)", "setting": "[13]", "result": 1.26},
      {"measurement": "fold change (FC)", "setting": "[14]", "result": 1.32},
      {"measurement": "fold change (FC)", "setting": "[15]", "result": 2.21},
      {"measurement": "Activity", "setting": "[16]", "result": 0.48},
      {"measurement": "Activity", "setting": "[17]", "result": 0.08},
      {"measurement": "Activity", "setting": "[18]", "result": 1.73},
      {"measurement": "Activity", "setting": "[19]", "result": 2.65},
      {"measurement": "fold change (FC)", "setting": "[20]", "result": 2.77},
      {"measurement": "Activity", "setting": "[21]", "result": 0.04},
      {"measurement": "Activity", "setting": "[22]", "result": 0.02},
      {"measurement": "fold change (FC)", "setting": "[23]", "result": 1.2},
      {"measurement": "Activity", "setting": "[24]", "result": 2.21},
      {"measurement": "Activity", "setting": "[25]", "result": "Toxic"},
      {"measurement": "Activity", "setting": "NCI-H69", "result": 610, "unit": "mm3"},
      {"measurement": "inhibition in vivo at 1.5 mg/kg", "setting": "NCI-H526 [26]", "result": 57, "unit": "%"},
      {"measurement": "inhibition in vivo at 0.5 mg/kg", "setting": "NCI-H526 [27]", "result": 48, "unit": "%"},
      {"measurement": "Activity", "setting": "NCI-H146", "result": "inactive"},
      {"measurement": "Activity", "setting": "NCI-H526 [28]", "result": "Active"},
      {"measurement": "inhibition", "setting": "NCI-H526 [29]", "result": "Dose-Dependent Effect"},
      {"measurement": "inhibition", "setting": "NCI-H526 [30]", "result": "Dose-Dependent Effect"},
      {"measurement": "inhibition", "setting": "NCI-H1417 [31]", "result": "Dose-Dependent Effect"},
      {"measurement": "inhibition", "setting": "NCI-H1417 [32]", "result": "Dose-Dependent Effect"},
      {"measurement": "inhibition", "setting": "[33]", "result": "Dose-Dependent Effect"}
    ]}
  ]
}
